The results in this text go back to ChEMBL document CHEMBL1681712, “Discovery and biological activity of a novel class I PI3K inhibitor, CH5132799” (Bioorg Med Chem Lett, 2011).

Series [1] is described as follows: Antiproliferative activity against human KPL4 cells. The class given is functional, cell-based.
The nature of series [2]: Half life in human liver microsomes assessed as glucuronidation. The series is classed as ADME, Microsome. In general terms: Liver microsomes are vesicles of endoplasmic reticulum, rich in cytochrome P450 enzymes.
Series [3] in a line: Half life in human liver microsomes. The class given is ADME, Microsome.
The target of series [4] is Phosphatidylinositol 4,5-bisphosphate 3-kinase catalytic subunit alpha isoform (Homo sapiens, UniProt P42336). The series is described as follows: Inhibition of PI3Kalpha.
Series [5] is described as follows: Oral bioavailability in mouse. The following applies: in vivo. The series is classed as ADME, organism-based.
The test system of series [6] is PC-3. The series is described as follows: In vivo antitumor activity against human PC3 cells in xenograft model assessed as inhibition of tumor growth at 100 mg/kg, po qd for 11 days relative to control. The series is classed as functional. The settings on record: PC-3, 264 h. On the technique in general: Xenograft models place foreign cells or tissue in a host animal.

The nature of series [7]: Half life in dog at 0.25 mg/kg, iv. The class given is ADME, organism-based, Canis lupus familiaris. On the set-up: dose 0.25 mg/kg, route intravenous. The settings on record: in vivo.
A short description of series [8]: Clearance in dog at 0.25 mg/kg, iv. The class given is ADME, organism-based, Canis lupus familiaris. On the set-up: dose 0.25 mg/kg, route intravenous. The settings on record: in vivo.
A short description of series [9]: Half life in rat at 0.5 mg/kg, iv. On the set-up: dose 0.5 mg/kg, route intravenous. The class given is ADME, organism-based. The settings on record: in vivo.
Series [10] is described as follows: AUC (infinity) in dog at 1 mg/kg, po. On the set-up: time infinity, dose 1 mg/kg, route oral. The following applies: plasma. The class given is ADME, organism-based, Canis lupus familiaris.
The nature of series [11]: Tmax in mouse at 1 mg/kg, po. The class given is ADME, organism-based. On the set-up: dose 1 mg/kg, route oral. The following applies: in vivo.
Series [12] is described as follows: AUC (infinity) in monkey at 1 mg/kg, po. On the set-up: time infinity, dose 1 mg/kg, route oral. The settings on record: rhesus monkey, plasma. The class given is ADME, organism-based, Macaca mulatta.
Series [13] is described as follows: Clearance in monkey at 0.25 mg/kg, iv. The class given is ADME, organism-based, Macaca mulatta. On the set-up: dose 0.25 mg/kg, route intravenous. The settings on record: rhesus monkey, in vivo.
Series [14] is described as follows: Tmax in monkey at 1 mg/kg, po. The class given is ADME, organism-based, Macaca mulatta. Also on record: dose 1 mg/kg, route oral. The following applies: rhesus monkey, in vivo.
A short description of series [15]: AUC (infinity) in rat at 1 mg/kg, po. The class given is ADME, organism-based. Also on record: time infinity, dose 1 mg/kg, route oral. The following applies: plasma.
The nature of series [16]: Inhibition of protein kinase.
A short description of series [17]: Oral bioavailability in rat at 1 mg/kg. The following applies: in vivo. The class given is ADME, organism-based.
The nature of series [18]: Half life in monkey at 0.25 mg/kg, iv. The series is classed as ADME, organism-based, Macaca mulatta. Also on record: dose 0.25 mg/kg, route intravenous. The settings on record: rhesus monkey, in vivo.
Series [19] deals with Phosphatidylinositol 4-phosphate 3-kinase C2 domain-containing subunit alpha (Homo sapiens, UniProt O00443). Kind of series: Inhibition of PI3KC2alpha.
In series [20] the test system is KPL4. The series is described as follows: Antitumor activity against human KPL4 cells expressing PI3Kalpha H1047R mutant xenografted in mouse assessed as tumor regression at 12.5 mg/kg, po for 6 weeks. The class given is functional, organism-based. Also on record: dose 12.5 mg/kg.
Series [21] is described as follows: AUC (infinity) in mouse at 2 mg/kg, iv. Also on record: time infinity, dose 2 mg/kg, route intravenous. The series is classed as ADME, organism-based. The following applies: plasma.
Series [22] has as its system KPL4. The series is described as follows: Antitumor activity against human KPL4 cells expressing PI3Kalpha H1047R mutant xenografted in mouse assessed as tumor regression at 12.5 mg/kg, po administered intermittent dosing schedule qd for 2 weeks on/1 week off. The class given is functional, organism-based. On the set-up: dose 12.5 mg/kg.
Series [23] in a line: Tmax in dog at 1 mg/kg, po. Also on record: dose 1 mg/kg, route oral. The settings on record: in vivo. The series is classed as ADME, organism-based, Canis lupus familiaris.
The nature of series [24]: Oral bioavailability in monkey at 1 mg/kg. The class given is ADME, organism-based, Macaca mulatta. The settings on record: rhesus monkey, in vivo.
The nature of series [25]: Half life in mouse at 2 mg/kg, iv. The series is classed as ADME, organism-based. On the set-up: dose 2 mg/kg, route intravenous. The settings on record: in vivo.
Series [26] is described as follows: Tmax in rat at 1 mg/kg, po. The series is classed as ADME, organism-based. On the set-up: dose 1 mg/kg, route oral. The following applies: in vivo.
A short description of series [27]: Half life in monkey at 1 mg/kg, po. The following applies: rhesus monkey, in vivo. On the set-up: dose 1 mg/kg, route oral. The class given is ADME, organism-based, Macaca mulatta.
Series [28] can be described thus: Clearance in rat at 0.5 mg/kg, iv. The following applies: in vivo. The class given is ADME, organism-based. On the set-up: dose 0.5 mg/kg, route intravenous.
Series [29] has as its target Phosphatidylinositol 4-phosphate 3-kinase C2 domain-containing subunit beta (Homo sapiens, UniProt O00750). The series is described as follows: Inhibition of PI3KC2beta.
Series [30] can be described thus: Oral bioavailability in mouse at 1 mg/kg. The class given is ADME, organism-based. The settings on record: in vivo.
In series [31] the target is Serine/threonine-protein kinase mTOR (Homo sapiens, UniProt P42345). The series is described as follows: Inhibition of mTOR.
Series [32] is described as follows: AUC (infinity) in dog at 0.25 mg/kg, iv. The series is classed as ADME, organism-based, Canis lupus familiaris. Also on record: time infinity, dose 0.25 mg/kg, route intravenous. The settings on record: plasma.
A short description of series [33]: AUC (infinity) in mouse at 1 mg/kg, po. The series is classed as ADME, organism-based. On the set-up: time infinity, dose 1 mg/kg, route oral. The following applies: plasma.
Series [34] concerns PC-3. The series is described as follows: In vivo antitumor activity against human PC3 cells in xenograft model assessed as inhibition of tumor growth at 25 mg/kg, po qd for 11 days relative to control. The settings on record: PC-3, 264 h. The series is classed as functional.
Series [35] in a line: AUC (infinity) in rat at 0.5 mg/kg, iv. The following applies: plasma. Also on record: dose 0.5 mg/kg, route intravenous, time infinity. The series is classed as ADME, organism-based.
Series [36] deals with KPL4. Kind of series: Antitumor activity against human KPL4 cells expressing PI3Kalpha H1047R mutant xenografted in mouse assessed as tumor regression at 12.5 mg/kg, po administered intermittent dosing schedule 5 days on/2 days off. The class given is functional, organism-based. On the set-up: dose 12.5 mg/kg.
A short description of series [37]: Oral bioavailability in dog at 1 mg/kg. The class given is ADME, organism-based, Canis lupus familiaris. The following applies: in vivo.
Series [38] deals with Phosphatidylinositol 3-kinase catalytic subunit type 3 (Homo sapiens, UniProt Q8NEB9). Kind of series: Inhibition of Vps34.
Series [39] is described as follows: Half life in mouse at 1 mg/kg, po. The series is classed as ADME, organism-based. The settings on record: in vivo. On the set-up: dose 1 mg/kg, route oral.
The nature of series [40]: Half life in dog at 1 mg/kg, po. The following applies: in vivo. The series is classed as ADME, organism-based, Canis lupus familiaris. Also on record: dose 1 mg/kg, route oral.
Series [41] can be described thus: Half life in rat at 1 mg/kg, po. The series is classed as ADME, organism-based. On the set-up: dose 1 mg/kg, route oral. The settings on record: in vivo.
Series [42] is described as follows: Clearance in mouse at 2 mg/kg, iv. The series is classed as ADME, organism-based. Also on record: dose 2 mg/kg, route intravenous. The settings on record: in vivo.

Activity calls are given as the source filed them. No cut-off for these calls is given here.

Phosphatidylinositol 4,5-bisphosphate 3-kinase catalytic subunit alpha isoform, sequence (P42336 whole entry, canonical isoform): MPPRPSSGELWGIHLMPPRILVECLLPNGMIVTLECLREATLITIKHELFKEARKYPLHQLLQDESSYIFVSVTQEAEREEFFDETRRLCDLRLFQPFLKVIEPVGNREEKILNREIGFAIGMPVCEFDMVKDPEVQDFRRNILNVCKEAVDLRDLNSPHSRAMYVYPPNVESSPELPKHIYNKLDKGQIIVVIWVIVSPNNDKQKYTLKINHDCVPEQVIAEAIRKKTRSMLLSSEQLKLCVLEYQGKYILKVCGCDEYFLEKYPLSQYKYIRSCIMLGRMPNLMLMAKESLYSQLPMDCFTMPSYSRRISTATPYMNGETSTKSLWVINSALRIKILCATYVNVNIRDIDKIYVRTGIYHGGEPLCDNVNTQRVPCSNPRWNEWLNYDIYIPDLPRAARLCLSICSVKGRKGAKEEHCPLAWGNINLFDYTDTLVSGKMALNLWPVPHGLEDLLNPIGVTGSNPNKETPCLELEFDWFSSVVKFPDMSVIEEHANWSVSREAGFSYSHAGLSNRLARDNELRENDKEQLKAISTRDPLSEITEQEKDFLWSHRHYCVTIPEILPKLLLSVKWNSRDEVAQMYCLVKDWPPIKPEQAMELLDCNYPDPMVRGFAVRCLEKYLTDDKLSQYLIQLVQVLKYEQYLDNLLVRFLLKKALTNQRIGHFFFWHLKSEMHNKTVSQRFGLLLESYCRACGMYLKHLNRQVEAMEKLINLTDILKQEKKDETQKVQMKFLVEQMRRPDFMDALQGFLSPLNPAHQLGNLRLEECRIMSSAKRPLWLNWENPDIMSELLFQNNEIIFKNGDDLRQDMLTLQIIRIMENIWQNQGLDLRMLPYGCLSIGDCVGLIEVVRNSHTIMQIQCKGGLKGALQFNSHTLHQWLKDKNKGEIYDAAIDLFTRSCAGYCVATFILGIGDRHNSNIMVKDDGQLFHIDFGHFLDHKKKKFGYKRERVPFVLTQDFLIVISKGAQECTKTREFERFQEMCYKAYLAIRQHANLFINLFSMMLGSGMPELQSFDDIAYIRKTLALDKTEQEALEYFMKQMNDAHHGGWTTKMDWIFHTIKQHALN
Phosphatidylinositol 4-phosphate 3-kinase C2 domain-containing subunit alpha, sequence (O00443 whole entry, the tested form may be a part): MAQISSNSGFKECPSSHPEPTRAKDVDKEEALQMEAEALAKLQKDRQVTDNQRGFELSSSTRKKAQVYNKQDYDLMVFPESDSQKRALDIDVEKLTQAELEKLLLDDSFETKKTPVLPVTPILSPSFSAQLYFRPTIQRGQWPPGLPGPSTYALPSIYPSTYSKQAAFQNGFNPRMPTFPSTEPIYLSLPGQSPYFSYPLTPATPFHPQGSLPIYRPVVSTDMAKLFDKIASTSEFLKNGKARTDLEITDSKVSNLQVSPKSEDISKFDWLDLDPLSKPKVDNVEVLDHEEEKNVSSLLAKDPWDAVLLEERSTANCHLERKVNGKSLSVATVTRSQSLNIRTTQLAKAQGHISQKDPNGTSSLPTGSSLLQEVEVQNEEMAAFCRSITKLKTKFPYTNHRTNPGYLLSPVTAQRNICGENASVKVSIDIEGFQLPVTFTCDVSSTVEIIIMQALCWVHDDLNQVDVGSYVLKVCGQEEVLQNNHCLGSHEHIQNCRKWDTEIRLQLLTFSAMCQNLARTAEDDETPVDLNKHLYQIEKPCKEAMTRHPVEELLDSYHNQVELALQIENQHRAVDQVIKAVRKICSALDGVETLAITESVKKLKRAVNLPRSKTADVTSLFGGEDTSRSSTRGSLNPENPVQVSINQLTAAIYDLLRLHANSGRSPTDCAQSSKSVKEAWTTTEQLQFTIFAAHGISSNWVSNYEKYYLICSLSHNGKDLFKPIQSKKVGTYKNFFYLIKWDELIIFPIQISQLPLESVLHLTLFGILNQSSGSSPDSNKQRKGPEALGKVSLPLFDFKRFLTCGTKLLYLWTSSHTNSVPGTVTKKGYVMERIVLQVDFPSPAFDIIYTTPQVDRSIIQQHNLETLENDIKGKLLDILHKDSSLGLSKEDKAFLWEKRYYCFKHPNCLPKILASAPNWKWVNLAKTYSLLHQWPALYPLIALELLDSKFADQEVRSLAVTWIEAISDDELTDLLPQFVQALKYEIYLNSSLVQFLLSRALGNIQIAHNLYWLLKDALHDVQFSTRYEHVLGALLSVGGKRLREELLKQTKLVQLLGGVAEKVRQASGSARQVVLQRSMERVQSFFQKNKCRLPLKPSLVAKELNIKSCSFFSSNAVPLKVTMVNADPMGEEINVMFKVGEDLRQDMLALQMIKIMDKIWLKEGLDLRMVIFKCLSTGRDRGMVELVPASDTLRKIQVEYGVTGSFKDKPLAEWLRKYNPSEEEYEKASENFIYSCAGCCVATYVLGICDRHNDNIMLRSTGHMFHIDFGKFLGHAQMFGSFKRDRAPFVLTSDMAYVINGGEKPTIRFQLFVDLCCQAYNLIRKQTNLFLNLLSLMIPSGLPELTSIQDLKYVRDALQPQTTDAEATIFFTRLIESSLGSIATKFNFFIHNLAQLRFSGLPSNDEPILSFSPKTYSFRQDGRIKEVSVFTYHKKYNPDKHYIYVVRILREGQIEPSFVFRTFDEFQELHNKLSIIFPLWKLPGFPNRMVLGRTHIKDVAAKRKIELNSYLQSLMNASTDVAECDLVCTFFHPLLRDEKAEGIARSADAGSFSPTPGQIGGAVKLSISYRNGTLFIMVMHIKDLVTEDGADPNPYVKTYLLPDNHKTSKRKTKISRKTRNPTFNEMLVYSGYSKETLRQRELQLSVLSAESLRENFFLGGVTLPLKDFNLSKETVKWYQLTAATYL
Phosphatidylinositol 3-kinase catalytic subunit type 3, sequence (Q8NEB9 whole entry): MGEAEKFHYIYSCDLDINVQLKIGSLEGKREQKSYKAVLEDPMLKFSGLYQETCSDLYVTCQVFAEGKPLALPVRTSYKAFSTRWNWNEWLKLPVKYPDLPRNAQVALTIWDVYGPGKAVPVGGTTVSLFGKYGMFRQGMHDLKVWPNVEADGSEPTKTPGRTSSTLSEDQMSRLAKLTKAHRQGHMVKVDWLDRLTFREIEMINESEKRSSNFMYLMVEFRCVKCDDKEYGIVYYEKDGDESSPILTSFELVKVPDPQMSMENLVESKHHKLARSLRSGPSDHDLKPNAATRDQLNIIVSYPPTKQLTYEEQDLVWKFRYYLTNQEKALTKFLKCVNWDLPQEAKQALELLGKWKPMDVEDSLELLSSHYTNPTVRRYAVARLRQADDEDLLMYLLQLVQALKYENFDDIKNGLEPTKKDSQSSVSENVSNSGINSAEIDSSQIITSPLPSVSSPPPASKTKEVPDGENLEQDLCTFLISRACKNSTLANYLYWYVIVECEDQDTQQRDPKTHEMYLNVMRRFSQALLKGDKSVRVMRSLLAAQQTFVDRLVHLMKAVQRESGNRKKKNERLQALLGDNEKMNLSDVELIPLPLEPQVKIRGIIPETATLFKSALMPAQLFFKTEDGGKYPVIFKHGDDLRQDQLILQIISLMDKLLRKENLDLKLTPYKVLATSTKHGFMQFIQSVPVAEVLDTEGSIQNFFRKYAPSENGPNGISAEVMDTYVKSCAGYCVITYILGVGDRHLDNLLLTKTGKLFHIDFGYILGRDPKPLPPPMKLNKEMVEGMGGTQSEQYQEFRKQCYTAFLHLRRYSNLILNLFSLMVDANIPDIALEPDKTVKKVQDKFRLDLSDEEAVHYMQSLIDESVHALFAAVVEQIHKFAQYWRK

As usually defined, the IC50 is the concentration that inhibits the measured activity by half. As usually defined, the half-life is how long it takes for the measured level to halve. On to `Oc1cccc(-c2nc(N3CCOCC3)nc3c2CCN3c2ccncc2)c1`, for which the figures for the IC50 in series [1] and in [4] were 0.45 µM and 0.0086 µM, respectively. Also, the values for the half-life in series [2] and in [3] were 0.183 h and 0.35 h, respectively. Further, in [5], the bioavailability worked out at 1.6%.

By inhibition in vivo is commonly meant the drop in the measured response relative to a control, in per cent. As to `Nc1ncc(-c2nc(N3CCOCC3)nc3c2CCN3c2cccnc2)cn1`, the results for the IC50 in series [1] and in [4] were 0.015 µM and 0.033 µM, respectively. For the same compound, the half-life in [2] is over 1 h; in [3] it was 1.18 h. Further, the inhibition in vivo at 100 mg/kg in the series on PC-3 [6] was found to be 112%. Also, the bioavailability in series [5] was 41%.

`Oc1cccc(-c2nc(N3CCOCC3)nc3c2CCN3c2cccnc2)c1` returned an IC50 in series [4] of 0.041 µM.

In series [4], `Oc1cccc(-c2nc(N3CCOCC3)nc3c2CCN3c2ccc3nc[nH]c3c2)c1` registered an IC50 of 0.077 µM.

A word on the clearance: it is the rate of elimination divided by the concentration. As usually defined, the AUC(0-inf) is the area under the concentration-time curve extrapolated to infinity. The Tmax is the time from dosing to the highest level. For the compound `CS(=O)(=O)N1CCc2c(-c3cnc(N)nc3)nc(N3CCOCC3)nc21` [IZORLISIB], the half-life in series [7] is 1.6 h; in series [9], 2.6 h; in [3] it was over 6 h; in series [18], 3.2 h; in series [25], 1.7 h; in series [27], 6.7 h. Moreover, the half-life was 3.8 h in [39], 3.3 h in series [40] and 3.5 h in series [41]. Moreover, the clearance in [8] was found to be 0.384 L/h/kg; in series [13], 0.372 L/h/kg; in [28] it was 0.378 L/h/kg; in [42], 1.05 L/h/kg. For the same compound, the AUC(0-inf) in series [10] stood at 1.43 µg·h/mL; in series [12], 2.17 µg·h/mL; in [15] it was 1.79 µg·h/mL; in [21] it was 1.93 µg·h/mL; in series [32], 0.66 µg·h/mL; in series [33], 0.978 µg·h/mL. The compound further registered an AUC(0-inf) in series [35] of 1.35 µg·h/mL. The Tmax in series [11] came out at 0.25 h; in [14], 4 h; in [23], 4.5 h; in series [26] it was 0.8 h. Also, the 50% inhibitory concentration (IC50) is over 10 µM in series [16]; over 10 µM in series [19]; 5.3 µM in [29]; 1.6 µM in series [31]; over 10 µM in series [38]. For the same compound, the bioavailability in series [17] was determined as 66.2%; in series [24] it was 78.4%; in series [30], 101%; in [5] it was 101%; in [37], 54.2%. Further, the outcome with KPL4 [20], in the series on KPL4 [22] and in the series with KPL4 [36] was Active. The inhibition in vivo at 25 mg/kg in the series on PC-3 [34] came out at 101%.
